Assay results taken from US20260055077A1, “PROTEIN DEGRADATION AGENT” (SUZHOU KINTOR PHARMACEUTICALS, INC., priority 2022, published 2026).

Key:
Format in all cases: cell-based
HL60 cells = experiment: Anti-proliferation ability of compounds on HL60 cells (CellTiter-Glo); conditions: Homo sapiens, HL-60, 72 h, incubated 3 days, CTG luminescence, IC50 calculated by XLfit
Procedure: • I. Anti-proliferation ability of compounds on HL60 cells • Activity test methods: • 1. Cell plating • HL60 cells in the logarithmic growth phase were counted and plated evenly in a 96-well transparent bottom white plate at 20000 cells per well and […] per well. • 2. Drug addition to cells • A certain amount of the compounds was weighed and diluted with DMSO to a 10 mM stock solution. The culture mediums corresponding to the cells were taken, and the drugs were diluted to the concentration required by the test, shaken gently and mixed evenly. 50 μl of the gradient dilution of the diluted compound was added to each well of the plated cells, and 50 μl of 0.1% DMSO was added to the control group. The plate was shaken gently, mixed evenly and incubated in a cell culture incubator for 3 days. • 3. CTG detection • 3.1 The CellTiter-Glo™ (CTG) reagent was taken in advance from the −20° C. refrigerator and equilibrated to room temperature in the dark. • 3.2 The 96-well plate was taken out and inspected under a microscope for growth situation. • 3.3 The bottom of the 96-well plate was tagged with white paper, and then the plate was wrapped with tin foil paper, shaken at 37° C. at 300 r for 10 mina and mixed evenly. • 3.4 50 ul of CTG detection reagent was added to each well, Luminescence signal was detected using a microplate reader, and the inhibition rate was calculated. IC50 values of the compounds were calculated by XLfit software to evaluate the proliferation inhibitory activity on 11160 cells.

GSPT1 = molecular target: T1, GSPT1 (Homo sapiens, UniProt P15170); experiment: Protein degradation experiment (Western blot), GSPT1 in HL60 cells; conditions: 6 h of drug treatment, FIG. 1, at lower concentration (about 3 μm to 10 nmn)
T1 construct: endogenous in cells; host or cells: HL60 (human acute promyelocytic leukemia cells)
T1 sequence (P15170 whole entry): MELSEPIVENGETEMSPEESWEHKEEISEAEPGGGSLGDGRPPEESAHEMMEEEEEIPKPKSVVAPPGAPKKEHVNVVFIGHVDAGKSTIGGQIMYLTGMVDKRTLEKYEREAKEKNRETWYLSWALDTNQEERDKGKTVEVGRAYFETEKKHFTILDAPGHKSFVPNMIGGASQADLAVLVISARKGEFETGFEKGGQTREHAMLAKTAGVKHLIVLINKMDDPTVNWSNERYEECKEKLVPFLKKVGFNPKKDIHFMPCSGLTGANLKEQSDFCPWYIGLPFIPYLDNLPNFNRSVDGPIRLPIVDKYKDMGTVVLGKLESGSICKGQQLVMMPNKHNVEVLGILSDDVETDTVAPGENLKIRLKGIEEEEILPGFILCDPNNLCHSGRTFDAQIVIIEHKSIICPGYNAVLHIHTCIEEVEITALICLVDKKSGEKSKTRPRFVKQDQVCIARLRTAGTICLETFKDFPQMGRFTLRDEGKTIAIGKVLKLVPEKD
Procedure: (§1) Cell culture conditions: The cells in the embodiments of the invention were purchased from Shanghai Cell Bank, Chinese Academy of Sciences. Human acute promyelocytic leukemia cells (HL60 cells) were cultured in RPMI-1640 (meilunbio, MA0215)^+20% FBS(manufacturer: Bi, product number: 04-001-1ACS)^+1% penicillin/streptomycin (manufacturer: Hyclone, product number: SH40003.01). The cell culture conditions were 5% CO2 and […]. When the cell coverage reached about 80%, the cells were passaged at a ratio of 1:3.
(§2) 2. Cell drug treatment and protein extraction 2.1 Cell treatment
(§3) The designated cells in the exponential growth phase were digested and plated into a 6-well plate at 1 10^6 cells per well. […]
(§4) By using the BCA protein concentration determination kit (from Thermo Fisher, Cat. No. 23225), the BSA standard determination solution and the supernatant in 2.2 to be tested (the supernatant can be diluted and then tested) were prepared according to the table 2 below. […] The plate was placed at 60′C for 10 min, and then the absorbance at 562 nim was detected. After the reading was recorded, a standard curve was plotted using concentration gradients of the standards, and the absorbance of the samples was substituted to calculate the protein concentration of the samples. […]

c-Myc = molecular target: T2, c-Myc (Homo sapiens, UniProt P01106); experiment: Protein degradation experiment (Western blot), c-Myc in HL60 cells; conditions: 6 h of drug treatment, FIG. 1, at lower concentration (about 3 μm to 10 nmn)
T2 construct: endogenous in cells; host or cells: HL60 (human acute promyelocytic leukemia cells)
T2 sequence (P01106 whole entry): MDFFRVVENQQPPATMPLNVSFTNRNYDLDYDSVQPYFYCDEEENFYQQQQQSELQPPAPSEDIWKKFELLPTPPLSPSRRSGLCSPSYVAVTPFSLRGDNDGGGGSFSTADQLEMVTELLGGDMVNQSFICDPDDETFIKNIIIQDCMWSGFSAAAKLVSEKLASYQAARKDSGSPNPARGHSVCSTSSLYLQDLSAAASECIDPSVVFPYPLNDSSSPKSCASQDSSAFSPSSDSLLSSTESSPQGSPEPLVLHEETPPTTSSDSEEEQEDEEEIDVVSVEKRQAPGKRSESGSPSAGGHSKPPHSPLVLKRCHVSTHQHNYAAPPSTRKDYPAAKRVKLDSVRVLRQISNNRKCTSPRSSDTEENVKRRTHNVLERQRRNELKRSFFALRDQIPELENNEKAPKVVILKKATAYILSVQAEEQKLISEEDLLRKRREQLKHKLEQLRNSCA
Procedure: as §1, §2, §3, §4

| SMILES | IC50 (HL60 cells) | degradation of GSPT1 protein in HL60 cells (GSPT1) | degradation of e-Myc (c-Myc) protein in HL60 cells (c-Myc) |
| --- | --- | --- | --- |
| O=C1CCC(N2Cc3cc(C(=O)NCc4ccc(CN(CCc5cccc6ccccc56)C(=O)CS)cc4)ccc3C2=O)C(=O)N1 (stereo not shown) [KT-042] | 34 ± 7 nM | – | – |
| O=C1CCC(N2Cc3cc(C(=O)NCc4ccc(CN(CCO)CCc5ccccc5)cc4)ccc3C2=O)C(=O)N1 (stereo not shown) [KT-001] | < 3.04 nM | – | – |
| CN(CCc1ccccc1)Cc1ccc(C(=O)NCc2ccc3c(c2)CN(C2CCC(=O)NC2=O)C3=O)c(O)c1 (stereo not shown) [KT-034] | 9.9 ± 3 nM | – | – |
| O=C1CCC(N2Cc3cc(C(=O)NCc4ccc(CN(Cc5ccccc5)C(=O)CO)cc4)ccc3C2=O)C(=O)N1 (stereo not shown) [KT-016] | 3.04 ± 0.84 nM | – | – |
| NCc1cc(-c2cccc3cccnc23)cnc1N1CCC(CC(=O)Nc2ccc3c(c2)CN(C2CCC(=O)NC2=O)C3=O)CC1 (stereo not shown) [KT-029] | 0.57 ± 0.1 nM | – | – |
| Cc1ccc(N2CCN(Cc3ccc(C(=O)NCc4ccc5c(c4)CN(C4CCC(=O)NC4=O)C5=O)cc3)C(CO)C2)cc1Cl (stereo not shown) [KT-022] | 1.03 ± 0.19 nM | – | – |
| O=C1CCC(N2Cc3cc(C(=O)NCc4ccc(CNCCc5cccc6ccccc56)cc4)ccc3C2=O)C(=O)N1 (stereo not shown) [KT-025] | < 3.04 nM | – | – |
| O=C1CCC(N2Cc3cc(CNC(=O)c4ccc(CN5CCN(c6ccc(CO)c(Cl)c6)CC5)cc4)ccc3C2=O)C(=O)N1 (stereo not shown) [KT-018] | 2.17 ± 0.78 nM | – | – |
| O=C1CCC(N2Cc3cc(NC(=O)CC4CCN(c5ncc(-c6cccc7cccnc67)cc5OCCO)CC4)ccc3C2=O)C(=O)N1 (stereo not shown) [KT-031] | < 0.34 nM | – | – |
| O=C1CCC(N2Cc3cc(NC(=O)CC4CCN(c5ncc(-c6cccc7cccnc67)cc5CO)CC4)ccc3C2=O)C(=O)N1 (stereo not shown) [KT-028] | < 0.34 nM | – | – |
| O=C1CCC(N2Cc3cc(C(=O)NCc4ccc(CN(CCO)CCc5cccc6ccccc56)cc4)ccc3C2=O)C(=O)N1 (stereo not shown) [KT-003] | 0.71 ± 0.04 nM | – | – |
| O=C1CCC(N2Cc3cc(NC(=O)CC4CCN(c5ncc(-c6nccc7ccccc67)cc5CO)CC4)ccc3C2=O)C(=O)N1 (stereo not shown) [KT-030] | < 0.34 nM | – | – |
| O=C1CCC(N2Cc3cc(NC(=O)CC4CCN(c5ncc(Br)cc5CO)CC4)ccc3C2=O)C(=O)N1 (stereo not shown) [KT-026] | 23 ± 3 nM | – | – |
| O=C(Cn1c2ccccc2c2cccnc21)NCc1ccc(CNC(=O)c2ccc3c(c2)CN(C2CCC(=O)NC2=O)C3=O)c(OCCO)c1 (stereo not shown) [KT-006] | 2.19 ± 1.5 nM | – | – |
| NCCOc1cc(-c2cccc3cccnc23)cnc1N1CCC(CC(=O)Nc2ccc3c(c2)CN(C2CCC(=O)NC2=O)C3=O)CC1 (stereo not shown) [KT-032] | 5620 nM | – | – |
| Cc1ccc(N2CCN(Cc3ccc(C(=O)NCc4ccc5c(c4)CN(C4CCC(=O)NC4=O)C5=O)c(O)c3)CC2)cc1Cl (stereo not shown) [KT-020] | 1.36 ± 0.67 nM | – | – |
| CN(Cc1ccc(C(=O)NCc2ccc3c(c2)CN(C2CCC(=O)NC2=O)C3=O)cc1)CC(O)c1ccccc1 (stereo not shown) [KT-013] | 3.45 ± 0.52 nM | – | – |
| O=C1CCC(N2Cc3cc(C(=O)NCc4ccc(CN(CCc5ccccc5)C(=O)NCCO)cc4)ccc3C2=O)C(=O)N1 (stereo not shown) [KT-015] | 24.2 ± 10.1 nM | – | – |
| O=C1CCC(N2Cc3cc(CNC(=O)c4ccc(CN5CCN(c6ccc(O)c(Cl)c6)CC5)cc4)ccc3C2=O)C(=O)N1 (stereo not shown) [KT-017] | 10.5 ± 0.4 nM | – | – |
| O=C1CCC(N2Cc3cc(C(=O)NCc4ccc(CN(CCO)CCc5ccc(Cl)c(Cl)c5)cc4)ccc3C2=O)C(=O)N1 (stereo not shown) [KT-002] | < 3.04 nM | completely degrade | completely degrade |
| O=C1CCC(N2Cc3cc(C(=O)NCc4ccc(CN(CCc5ccccc5)C(=O)CCO)cc4)ccc3C2=O)C(=O)N1 (stereo not shown) [KT-033] | 6 ± 1.6 nM | – | – |
| O=C1CCC(N2Cc3cc(CNC(=O)c4ccc(CN5CCN(c6ccc(OCCO)c(Cl)c6)CC5)cc4)ccc3C2=O)C(=O)N1 (stereo not shown) [KT-019] | 2.8 ± 0.1 nM | – | – |
| CC(=O)c1ccc(N2CCN(Cc3ccc(C(=O)NCc4ccc5c(c4)CN(C4CCC(=O)NC4=O)C5=O)cc3)CC2)cc1Cl (stereo not shown) [KT-041] | < 3.04 nM | – | – |
